Molecules are shown by their SMILES.

Usually IC50 stands for the concentration needed to halve the response being measured.

T1 sequence (P25774 115-331): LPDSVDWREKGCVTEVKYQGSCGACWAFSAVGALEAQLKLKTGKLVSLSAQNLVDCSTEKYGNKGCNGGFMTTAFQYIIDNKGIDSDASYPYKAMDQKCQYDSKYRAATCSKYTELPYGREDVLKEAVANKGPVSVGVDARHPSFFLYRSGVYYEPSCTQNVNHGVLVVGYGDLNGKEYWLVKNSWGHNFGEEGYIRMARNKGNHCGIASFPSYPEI

The first assay concerns the target T1, Recombinant human cathepsin S (CatS) (Homo sapiens, UniProt P25774).
T1 construct: made in house
Nature of the assay: Recombinant human cathepsin S (CatS) fluorogenic substrate inhibition assay. In kind it is biochemical.
Conditions: not given
On the procedure:
Recombinant human cathepsin S (CatS) was expressed in the baculovirus system and purified in one step with a thiopropyl-sepharose column. […] The assay is run in 150 mM sodium acetate pH 5.0 containing 1.5 mM DTT and 150 mM NaCl. […] Measurements are taken every min for 20 min. The rate is calculated from the slope of the increase in fluorescence and the percent inhibition is calculated from this.
In the case of `CN1CCN(CC(O)Cn2nc(-c3ccc(C(F)(F)F)c(CNC(=O)c4ccc(F)cc4)c3)c3c2CCN(S(C)(=O)=O)C3)CC1` (centres unmarked) [Example 227, 4-Fluoro-N-(5-{1-[2-hydroxy-3-(4-methyl-piperazin-1-yl)-propyl]-5-methanesulfonyl-4,5,6,7-tetrahydro-1H-pyrazolo[4,3-c]pyridin-3-yl}-2-trifluoromethyl-benzyl)-benzamide], the IC50 is 760 nM.
For the compound `CS(=O)(=O)N1CCc2c(c(-c3ccc(Cl)c(CNC(=O)c4ccccc4)c3)nn2CCCN2CCCC2)C1` [Example 2, N-{2-Chloro-5-[5-methanesulfonyl-1-(3-pyrrolidin-1-yl-propyl)-4,5,6,7-tetrahydro-1H-pyrazolo[4,3-c]pyridin-3-yl]-benzyl}-benzamide], the IC50 was 320 nM.

The assay is the same for the next values; noted with them: average of results obtained; substrate Z-Valine-Valine-Arginine-AMC 10 μM, pH 5.0; read-out: CatS IC50.
On to `CS(=O)(=O)N1CCc2c(c(-c3ccc(C(F)(F)F)c(CNC(=O)c4ccccc4F)c3)nn2CC(O)CN2CCCC2)C1` (centres unmarked) [Example 161, 2-Fluoro-N-{5-[1-(2-hydroxy-3-pyrrolidin-1-yl-propyl)-5-methanesulfonyl-4,5,6,7-tetrahydro-1H-pyrazolo[4,3-c]pyridin-3-yl]-2-trifluoromethyl-benzyl}-benzamide], for which the IC50 was found to be 370 nM.
Take `CS(=O)(=O)N1CCc2c(c(-c3ccc(C(F)(F)F)c(CNC(=O)CN4CCOCC4)c3)nn2CCCN2CCC(N3CCCC3=O)CC2)C1` [Example 39, N-[5-(5-Methanesulfonyl-1-{3-[4-(2-oxo-pyrrolidin-1-yl)-piperidin-1-yl]-propyl}-4,5,6,7-tetrahydro-1H-pyrazolo[4,3-c]pyridin-3-yl)-2-trifluoromethyl-benzyl]-2-morpholin-4-yl-acetamide]: the half-inhibitory concentration (IC50) was 440 nM.
Consider `CS(=O)(=O)N1CCc2c(c(-c3ccc(Cl)c(CNC(=O)c4ccccc4)c3)nn2CC(O)CN2CCOCC2)C1` (centres unmarked) [Example 220, N-{2-Chloro-5-[1-(2-hydroxy-3-morpholin-4-yl-propyl)-5-methanesulfonyl-4,5,6,7-tetrahydro-1H-pyrazolo[4,3-c]pyridin-3-yl]-benzyl}-benzamide], for which the IC50 is 650 nM.
The same measure, in the same setting: the same measure for `CC(C)=CC(=O)NCc1cc(-c2nn(CC(O)CN3CCC(NS(C)(=O)=O)CC3)c3c2CN(S(C)(=O)=O)CC3)ccc1C(F)(F)F` (centres unmarked) [Example 269, 3-Methyl-but-2-enoic acid 5-{1-[2-hydroxy-3-(4-methanesulfonylamino-piperidin-1-yl)-propyl]-5-methanesulfonyl-4,5,6,7-tetrahydro-1H-pyrazolo[4,3-c]pyridin-3-yl}-2-trifluoromethyl-benzylamide]: 30 nM; for `CC(C)CC(=O)NCc1cc(-c2nn(CC(O)CN3CCC(NS(C)(=O)=O)CC3)c3c2CN(S(C)(=O)=O)CC3)ccc1C(F)(F)F` (centres unmarked) [Example 255, N-(5-{1-[2-Hydroxy-3-(4-methanesulfonylamino-piperidin-1-yl)-propyl]-5-methanesulfonyl-4,5,6,7-tetrahydro-1H-pyrazolo[4,3-c]pyridin-3-yl}-2-trifluoromethyl-benzyl)-3-methyl-butyramide]: 160 nM.
On to `CS(=O)(=O)N1CCc2c(c(-c3ccc(C(F)(F)F)c(CNc4nc5ccccc5o4)c3)nn2CC(O)CN2CCCC2)C1` (centres unmarked) [Example 68, 1-{3-[3-(Benzooxazol-2-ylaminomethyl)-4-trifluoromethyl-phenyl]-5-methanesulfonyl-4,5,6,7-tetrahydro-pyrazolo[4,3-c]pyridin-1-yl}-3-pyrrolidin-1-yl-propan-2-ol], for which the IC50 turned out to be 750 nM.
As for `CS(=O)(=O)N1CCc2c(c(-c3ccc(Cl)c(CNS(=O)(=O)c4ccc(Cl)c(Cl)c4)c3)nn2CCCN2CCCC2)C1` [Example 197, 3,4-Dichloro-N-{2-chloro-5-[5-methanesulfonyl-1-(3-pyrrolidin-1-yl-propyl)-4,5,6,7-tetrahydro-1H-pyrazolo[4,3-c]pyridin-3-yl]-benzyl}-benzenesulfonamide], the IC50 came to 5400 nM.
On the same count and under the same terms, the same measure for `CC1CCN(CC(O)Cn2nc(-c3ccc(C(F)(F)F)c(CNC(=O)c4ccc(F)cc4)c3)c3c2CCN(S(C)(=O)=O)C3)CC1` (centres unmarked) [Example 22, 4-Fluoro-N-(5-{1-[2-hydroxy-3-(4-methyl-piperidin-1-yl)-propyl]-5-methanesulfonyl-4,5,6,7-tetrahydro-1H-pyrazolo[4,3-c]pyridin-3-yl}-2-trifluoromethyl-benzyl)-benzamide]: 100 nM; for `O=C(NCc1cc(-c2nn(CC(O)CN3CCC4(CCNC4=O)CC3)c3c2CNCC3)ccc1C(F)(F)F)c1ccc(F)cc1` (centres unmarked) [Example 238, 4-Fluoro-N-(5-{1-[2-hydroxy-3-(1-oxo-2,8-diaza-spiro[4.5]dec-8-yl)-propyl]-4,5,6,7-tetrahydro-1H-pyrazolo[4,3-c]pyridin-3-yl}-2-trifluoromethyl-benzyl)-benzamide]: 940 nM.
With `CS(=O)(=O)NCc1cc(-c2nn(CC(O)CN3CCCC3)c3c2CN(S(C)(=O)=O)CC3)ccc1C(F)(F)F` (centres unmarked) [Example 195, N-{5-[1-(2-Hydroxy-3-pyrrolidin-1-yl-propyl)-5-methanesulfonyl-4,5,6,7-tetrahydro-1H-pyrazolo[4,3-c]pyridin-3-yl]-2-trifluoromethyl-benzyl}-methanesulfonamide], the IC50 turned out to be 6500 nM.
In the case of `CC(=O)NC1CCN(CC(O)Cn2nc(-c3ccc(Cl)c(CNC(=O)c4ccc(F)cc4)c3)c3c2CCN(S(C)(=O)=O)C3)CC1` (centres unmarked) [Example 13, N-(5-{1-[3-(4-Acetylamino-piperidin-1-yl)-2-hydroxy-propyl]-5-methanesulfonyl-4,5,6,7-tetrahydro-1H-pyrazolo[4,3-c]pyridin-3-yl}-2-chloro-benzyl)-4-fluoro-benzamide], the half-maximal inhibitory concentration (IC50) was 40 nM.
Regarding `CS(=O)(=O)N1CCc2c(c(-c3ccc(C(F)(F)F)c(CNC(=O)c4ccc(F)cc4)c3)nn2CC(O)CN2CCC(O)CC2)C1` (centres unmarked) [Example 25, 4-Fluoro-N-(5-{1-[2-hydroxy-3-(4-hydroxy-piperidin-1-yl)-propyl]-5-methanesulfonyl-4,5,6,7-tetrahydro-1H-pyrazolo[4,3-c]pyridin-3-yl}-2-trifluoromethyl-benzyl)-benzamide], the half-maximal inhibitory concentration (IC50) was 170 nM.
Regarding `CS(=O)(=O)N1CCc2c(c(-c3ccc(C(F)(F)F)c(CNc4ncccn4)c3)nn2CC(O)CN2CCCC2)C1` (centres unmarked) [Example 65, 1-{5-Methanesulfonyl-3-[3-(pyrimidin-2-ylaminomethyl)-4-trifluoromethyl-phenyl]-4,5,6,7-tetrahydro-pyrazolo[4,3-c]pyridin-1-yl}-3-pyrrolidin-1-yl-propan-2-ol], the concentration for half-maximal inhibition (IC50) is 16600 nM.
Take `CC(C)CC(=O)NCc1cc(-c2nn(CC(O)CN3CCC(NC(=O)C(F)(F)F)C3)c3c2CN(S(C)(=O)=O)CC3)ccc1C(F)(F)F` (centres unmarked) [Example 280, N-[5-(1-{2-Hydroxy-3-[3-(2,2,2-trifluoro-acetylamino)-pyrrolidin-1-yl]-propyl}-5-methanesulfonyl-4,5,6,7-tetrahydro-1H-pyrazolo[4,3-c]pyridin-3-yl)-2-trifluoromethyl-benzyl]-3-methyl-butyramide]: the IC50 is 360 nM.
On to `CS(=O)(=O)N1CCc2c(c(-c3ccc(Cl)c(CNC(=O)c4ccccc4)c3)nn2CC(O)CN2CCCC2)C1` (centres unmarked) [Example 69, N-{2-Chloro-5-[1-(2-hydroxy-3-pyrrolidin-1-yl-propyl)-5-methanesulfonyl-4,5,6,7-tetrahydro-1H-pyrazolo[4,3-c]pyridin-3-yl]-benzyl}-benzamide], for which the IC50 turned out to be 500 nM.
As to `CN(C)C1CCN(CC(O)Cn2nc(-c3ccc(Cl)c(CNC(=O)c4ccc(F)cc4)c3)c3c2CCN(S(C)(=O)=O)C3)CC1` (centres unmarked) [Example 85, N-(2-Chloro-5-{1-[3-(4-dimethylamino-piperidin-1-yl)-2-hydroxy-propyl]-5-methanesulfonyl-4,5,6,7-tetrahydro-1H-pyrazolo[4,3-c]pyridin-3-yl}-benzyl)-4-fluoro-benzamide], the IC50 was determined as 450 nM.
As for `CS(=O)(=O)N1CCc2c(c(-c3ccc(Cl)c(CNC(=O)c4ccc(F)cc4)c3)nn2CC(O)CN2CCCC(C(N)=O)C2)C1` (centres unmarked) [Example 81, 1-[3-(3-{4-Chloro-3-[(4-fluoro-benzoylamino)-methyl]-phenyl}-5-methanesulfonyl-4,5,6,7-tetrahydro-pyrazolo[4,3-c]pyridin-1-yl)-2-hydroxy-propyl]-piperidine-3-carboxylic acid amide], the concentration for half-maximal inhibition (IC50) came out at 170 nM.
Turning to `CS(=O)(=O)N1CCc2c(c(-c3ccc(Cl)c(CNC(=O)c4ccc(F)cc4)c3)nn2CCCN2CCCC2)C1` [Example 35, N-{2-Chloro-5-[5-methanesulfonyl-1-(3-pyrrolidin-1-yl-propyl)-4,5,6,7-tetrahydro-1H-pyrazolo[4,3-c]pyridin-3-yl]-benzyl}-4-fluoro-benzamide], the IC50 is 280 nM.
With `CS(=O)(=O)N1CCc2c(c(-c3ccc(Cl)c(CNC(=O)c4cc5ccccc5s4)c3)nn2CCCN2CCCC2)C1` [Example 164, Benzo[b]thiophene-2-carboxylic acid 2-chloro-5-[5-methanesulfonyl-1-(3-pyrrolidin-1-yl-propyl)-4,5,6,7-tetrahydro-1H-pyrazolo[4,3-c]pyridin-3-yl]-benzylamide], the IC50 was found to be 410 nM.
Consider `NC(=O)N1CCc2c(c(-c3ccc(C(F)(F)F)c(CNC(=O)c4ccc(F)cc4)c3)nn2CC(O)CN2CCC3(CCNC3=O)CC2)C1` (centres unmarked) [Example 9, 3-{3-[(4-Fluoro-benzoylamino)-methyl]-4-trifluoromethyl-phenyl}-1-[2-hydroxy-3-(1-oxo-2,8-diaza-spiro[4.5]dec-8-yl)-propyl]-1,4,6,7-tetrahydro-pyrazolo[4,3-c]pyridine-5-carboxylic acid amide], for which the concentration for half-maximal inhibition (IC50) turned out to be 40 nM.
On to `CS(=O)(=O)N1CCc2c(c(-c3ccc(C(F)(F)F)c(CNC(=O)c4ccc(F)cc4Cl)c3)nn2CC(O)CN2CCCC2)C1` (centres unmarked) [Example 63, 2-Chloro-4-fluoro-N-{5-[1-(2-hydroxy-3-pyrrolidin-1-yl-propyl)-5-methanesulfonyl-4,5,6,7-tetrahydro-1H-pyrazolo[4,3-c]pyridin-3-yl]-2-trifluoromethyl-benzyl}-benzamide], for which the IC50 turned out to be 250 nM.

These data come from patent US20090118274A1, “MONOCYCLIC AMINOPROPYL TETRAHYDRO-PYRAZOLO-PYRIDINE MODULATORS OF CATHEPSIN S” (priority 2007, published 2009).
